For 27 compounds, inhibition and melting point results are on record in patent publication US20090197859A1 (Pfizer Inc., priority 2008, published 2009).

The target in data set [1] is T1, cloned human 5-HT6 receptor (Homo sapiens, UniProt P50406).
T1 construct: host or cells: HeLa cells, G-418 selection, membrane preparation
The data set can be described thus: 5-HT6 Receptor Binding Assay ([3H]-LSD radioligand, SPA). Conditions: for inhibition at 1 µM: read-out: 5HT6 % inh @ 1 uM. The method, then: 5-HT6 Receptor Binding Assay
Hela cells containing the cloned human 5-HT6 receptor were acquired from Dr. David R. Sibley's laboratory in National Institute of Health (see Sibley, D. R., J. Neurochemistry, 66, 47-56, 1996). Cells were grown in high glucose Dulbecco's modified Eagle's medium, supplemented with L-glutamine, 0.5% sodium pyruvate, 0.3% penicillin-streptomycin, 0.025% G-418 and 5% Gibco fetal bovine serum and then were harvested, when confluent, in cold phosphate buffered saline.
Harvested intact cells were washed once in cold phosphate-buffered saline. The cells were pelleted and resuspended in 100 ml of cold 50 mM Tris, 5 mM EDTA and 5 mM EGTA, pH 7.4. Homogenization was with a Vir Tishear generator, 4 cycles for 30 seconds each at setting 50. The homogenized cells were centrifuged at […] for 10 minutes and the supernatant was removed. The pellet was resuspended in 100 ml of the above buffer and rehomogenized for 2 cycles. The rehomogenized cells were then centrifuged at […] for 10 minutes and the supernatant was removed. The combined supernatant (200 ml) was centrifuged at 23,000 RPM (80,000×g) for 1 hour in a Beckman Rotor (42.1 Ti). The membrane pellet was resuspended in […] of assay buffer containing HEPES 20 mM, MgCl2 10 mM, NaCl 150 mM, EDTA 1 mM, pH 7.4 and stored frozen in aliqouts at −70° C.
The radioligand binding assay used [^3H]-lysergic acid diethylamide (LSD). The assay was carried out in Wallac 96-well sample plates by the addition of 11 μl of the test sample at the appropriate dilution (the assay employed 11 serial concentrations of samples run in duplicate), 11 μl of radioligand, and 178 μl of a washed mixture of WGA-coated SPA beads and membranes in binding buffer. The plates were shaken for about 5 minutes and then incubated at room temperature for 1 hour. The plates were then loaded into counting cassettes and counted in a Wallac MicroBeta Trilux scintillation counter.
Binding Constant Determination may be obtained by performing serial dilutions, e.g., eleven dilutions, of test compounds into assay plates using the PE/Cetus Pro/Pette pipetter. These dilutions are followed by radioligand and the bead-membrane mixture prepared as described above. After obtaining the specifically bound cpm, the data are fit to a one-site binding model using GraphPad Prism ver. 2.0. Estimated IC50 values are converted to Ki values using the Cheng-Prusoff equation (Cheng, Y. C. et al., Biochem. Pharmacol., 22, 3099-108, 1973).

As a reminder, the melting point is the temperature, or range, at which the solid turns liquid.

Where a name gives a salt, the structure may show the parent alone.

T1 sequence (P50406 whole entry): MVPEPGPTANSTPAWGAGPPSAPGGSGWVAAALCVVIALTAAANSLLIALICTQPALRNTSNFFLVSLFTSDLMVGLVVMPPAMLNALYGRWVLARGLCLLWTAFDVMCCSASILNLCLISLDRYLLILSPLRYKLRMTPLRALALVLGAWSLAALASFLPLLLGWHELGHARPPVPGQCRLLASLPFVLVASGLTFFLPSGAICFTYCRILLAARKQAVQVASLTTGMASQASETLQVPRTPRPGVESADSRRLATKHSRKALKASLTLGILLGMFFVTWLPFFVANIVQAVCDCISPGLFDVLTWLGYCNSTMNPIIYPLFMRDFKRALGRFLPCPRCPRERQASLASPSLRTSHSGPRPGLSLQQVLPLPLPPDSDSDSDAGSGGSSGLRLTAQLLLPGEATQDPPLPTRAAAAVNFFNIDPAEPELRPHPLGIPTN

In turn, `CN1CCN(c2cccc(S(=O)(=O)N3CCC(c4ccccc4F)CC3)n2)CC1` [Example 88, 1-{6-[4-(2-Fluoro-phenyl)-piperidine-1-sulfonyl]-pyridin-2-yl}-4-methyl-piperazine] showed a melting point of 240.5 to 242 °C. Further, the inhibition at 1 µM in data set [1] was 102%. Taken in the same sequence, the figures for `CN1CCCN(c2cccc(C(=O)N3CCC[C@H](Oc4cccc(F)c4)C3)n2)CC1` [Example 85, [(S)-3-(3-Fluoro-phenoxy)-piperidin-1-yl]-[6-(4-methyl-[1,4]diazepan-1-yl)-pyridin-2-yl]-methanone] were 113 to 115 °C and 99.1%. `CN1CCN(c2cccc(C(=O)N(C)Cc3cccc(Cl)c3)n2)CC1` [Example 71, 6-(4-Methyl-piperazin-1-yl)-pyridine-2-carboxylic acid (3-chloro-benzyl)-methyl-amide] yielded a melting point of 81 to 82 °C. Also, the inhibition at 1 µM in data set [1] came out at 87.1%.

Take `Cc1ccc(O[C@@H]2CCN(C(=O)c3cccc(N4CCCN(C)CC4)n3)C2)cc1` [Example 59, [6-(4-Methyl-[1,4]diazepan-1-yl)-pyridin-2-yl]-((R)-3-p-tolyloxy-pyrrolidin-1-yl)-methanone]: the melting point was 108 to 110 °C. Besides, the inhibition at 1 µM in data set [1] turned out to be 76.2%. The compound `Cc1ccccc1C1=CCN(C(=O)c2cccc(N3CCN(C)CC3)n2)CC1` [Example 24, [6-(4-Methyl-piperazin-1-yl)-pyridin-2-yl]-(4-o-tolyl-3,6-dihydro-2H-pyridin-1-yl)-methanone] showed a melting point of 160.7 to 162.3 °C. Besides, the inhibition at 0.3 µM in data set [1] (0.3 μM (stated in cell), read-out: 5HT6 % inh @ 0.3 μM) is 92%. As to `Cc1ccccc1O[C@@H]1CCN(C(=O)c2cccc(N3CCCNCC3)n2)C1` [Example 49, (6-[1,4]Diazepan-1-yl-pyridin-2-yl)-((R)-3-o-tolyloxy-pyrrolidin-1-yl)-methanone], the melting point was 102 to 104 °C. For the same compound, the inhibition at 1 µM in data set [1] is 89.9%. The like results for `O=C(c1cccc(N2CCNCC2)n1)N1CCCCC1c1cccc(F)c1` (stereo not drawn) [Example 27, [2-(3-Fluoro-phenyl)-piperidin-1-yl]-(6-piperazin-1-yl-pyridin-2-yl)-methanone] were, in that order, 156.8 to 157 °C and 94.5%. Taken in the same sequence, the figures for `Cc1ccc(O[C@H]2CCCN(C(=O)c3cccc(N4CCCNCC4)n3)C2)cc1` [Example 41, (6-[1,4]Diazepan-1-yl-pyridin-2-yl)-((S)-3-p-tolyloxy-piperidin-1-yl)-methanone] were 157.6 to 158.2 °C and 94.7%. In turn, `CN1CCN(c2cccc(C(=O)N3CCC(c4ccccc4F)CC3)n2)CC1` [Example 20, [4-(2-Fluoro-phenyl)-piperidin-1-yl]-[6-(4-methyl-piperazin-1-yl)-pyridin-2-yl]-methanone] gave a melting point of 111 to 113 °C. For the same compound, the inhibition at 1 µM in data set [1] came out at 101%.

As for `Cc1ccc(O[C@H]2CCN(C(=O)c3cccc(N4CCCNCC4)n3)C2)cc1` [Example 43, (6-[1,4]Diazepan-1-yl-pyridin-2-yl)-((S)-3-p-tolyloxy-pyrrolidin-1-yl)-methanone], the melting point lay in the range of 90 to 92 °C. Besides, the inhibition at 1 µM in data set [1] turned out to be 97.7%.

The compound `Cc1ccc(O[C@@H]2CCCN(C(=O)c3cccc(N4CCCNCC4)n3)C2)cc1` [Example 54, (6-[1,4]Diazepan-1-yl-pyridin-2-yl)-((R)-3-p-tolyloxy-piperidin-1-yl)-methanone] gave a melting point of 140 °C. Further, the inhibition at 1 µM in data set [1] was found to be 86.4%. `COc1ccccc1CN(C)C(=O)c1cccc(N2CCN(C)CC2)n1` [Example 72, 6-(4-Methyl-piperazin-1-yl)-pyridine-2-carboxylic acid (2-methoxy-benzyl)-methyl-amide] registered a melting point of 75 to 76 °C. In addition, the inhibition at 1 µM in data set [1] came out at 89.9%. As to `Cc1ccccc1C1CCCCN1C(=O)c1cccc(N2CCCNCC2)n1` (stereo not drawn) [Example 33, (6-[1,4]Diazepan-1-yl-pyridin-2-yl)-(2-o-tolyl-piperidin-1-yl)-methanone], the melting point was in the range of 123.3 to 124 °C. Further, in data set [1], the inhibition at 1 µM is 84.6%. The like results for `Cc1cccc(C2CCCCN2C(=O)c2cccc(N3CCNCC3)n2)c1` (stereo not drawn) [Example 28, (6-Piperazin-1-yl-pyridin-2-yl)-(2-m-tolyl-piperidin-1-yl)-methanone] were, in that order, 154.1 to 155.5 °C and 94.6%. The like results for `Cc1ccccc1O[C@H]1CCN(C(=O)c2cccc(N3CCCNCC3)n2)C1` [Example 36, (6-[1,4]Diazepan-1-yl-pyridin-2-yl)-((S)-3-o-tolyloxy-pyrrolidin-1-yl)-methanone] were, in that order, 140 to 142 °C and 93.5%. In turn, `Cc1ccccc1OC1CCN(C(=O)c2cccc(C3CCN(C)CC3)n2)CC1` (as salt: hydrochloride) [Example 95, (1′-Methyl-1′,2′,3′,4′,5′,6′-hexahydro-[2,4′]bipyridinyl-6-yl)-(4-o-tolyloxy-piperidin-1-yl)-methanone] returned a melting point of 118 to 120 °C.

On to `O=S(=O)(c1cccc(N2CCNCC2)n1)N1CCC(c2ccccc2F)CC1` (as salt: hydrochloride) [Example 51, 1-{6-[4-(2-Fluoro-phenyl)-piperidine-1-sulfonyl]-pyridin-2-yl}-piperazine], for which the melting point lay in the range of 211 to 212.2 °C.

Consider `Cc1ccccc1O[C@@H]1CCN(C(=O)c2cccc(N3CCCN(C)CC3)n2)C1` (as salt: hydrochloride) [Example 53, [6-(4-Methyl-[1,4]diazepan-1-yl)-pyridin-2-yl]-((R)-3-o-tolyloxy-pyrrolidin-1-yl)-methanone], for which the melting point fell in the range of 94 to 96 °C. Still for that read-out and setting: as for `Cc1ccccc1C1CCN(S(=O)(=O)c2cccc(N3CCN(C)CC3)n2)CC1` (as salt: hydrochloride) [Example 78, 1-Methyl-4-[6-(4-o-tolyl-piperidine-1-sulfonyl)-pyridin-2-yl]-piperazine], the figure is 203 to 204.5 °C. As to `Cc1cccc(F)c1C1CCN(C(=O)c2cccc(N3CCN(C)CC3)n2)CC1` (as salt: hydrochloride) [Example 23, [4-(2-Fluoro-6-methyl-phenyl)-piperidin-1-yl]-[6-(4-methyl-piperazin-1-yl)-pyridin-2-yl]-methanone], the melting point lay within 163 to 164.7 °C.

`CN1CCC(c2cccc(C(=O)N3CCC(Oc4cccc(F)c4)CC3)n2)C1` (stereo not drawn) (as salt: hydrochloride) [Example 16, [4-(3-Fluoro-phenoxy)-piperidin-1-yl]-[6-(1-methyl-pyrrolidin-3-yl)-pyridin-2-yl]-methanone]: the melting point was 85 to 86 °C. Same read-out and setting: as for `CN1CCN(c2cccc(C(=O)N3CC=C(c4ccccc4F)CC3)n2)CC1` (as salt: hydrochloride) [Example 21, [4-(2-Fluoro-phenyl)-3,6-dihydro-2H-pyridin-1-yl]-[6-(4-methyl-piperazin-1-yl)-pyridin-2-yl]-methanone], the figure is 176.7 to 177.2 °C; as for `Cc1ccccc1C1CCCCN1C(=O)c1cccc(N2CCNCC2)n1` (stereo not drawn) (as salt: hydrochloride) [Example 26, (6-Piperazin-1-yl-pyridin-2-yl)-(2-o-tolyl-piperidin-1-yl)-methanone], 105.6 to 106 °C; as for `CN1CCCN(c2cccc(C(=O)N3CC[C@@H](Oc4ccccc4F)C3)n2)CC1` (as salt: hydrochloride) [Example 46, [(R)-3-(2-Fluoro-phenoxy)-pyrrolidin-1-yl]-[6-(4-methyl-[1,4]diazepan-1-yl)-pyridin-2-yl]-methanone], 106 to 108 °C. The same measure, in the same setting: in the case of `O=C(c1cccc(N2CCCNCC2)n1)N1CC[C@H](Oc2ccccc2F)C1` (as salt: hydrochloride) [Example 30, (6-[1,4]Diazepan-1-yl-pyridin-2-yl)-[(S)-3-(2-fluoro-phenoxy)-pyrrolidin-1-yl]-methanone] it was 75 to 77 °C.

With `O=C(c1cccc(N2CCNCC2)n1)N1CCC(c2ccccc2F)CC1` [Example 22, [4-(2-Fluoro-phenyl)-piperidin-1-yl]-(6-piperazin-1-yl-pyridin-2-yl)-methanone], the inhibition at 1 µM in data set [1] stood at 96.8%.

As for `CN1CC=C(c2cccc(C(=O)N3CCC(Oc4ccccc4Cl)CC3)n2)CC1` [Example 100, [4-(2-Chloro-phenoxy)-piperidin-1-yl]-(1′-methyl-1′,2′,3′,6′-tetrahydro-[2,4′]bipyridinyl-6-yl)-methanone], the inhibition at 1 µM in data set [1] was determined as 102%.
